{
  "source": "paper PMC4032265",
  "about": "(PLoS ONE, 2014)",
  "key": {"[1]": {"test_system": "peripheral cholecystokinin receptors", "conditions": "cited from earlier work"}, "sigma (σ) receptors": {"test_system": "sigma (σ) receptors", "conditions": "cited from earlier work"}, "[2]": {"target": "T1, 5HT2C serotonergic receptor (Homo sapiens, UniProt P28335)", "T1 sequence (P28335 33-458)": "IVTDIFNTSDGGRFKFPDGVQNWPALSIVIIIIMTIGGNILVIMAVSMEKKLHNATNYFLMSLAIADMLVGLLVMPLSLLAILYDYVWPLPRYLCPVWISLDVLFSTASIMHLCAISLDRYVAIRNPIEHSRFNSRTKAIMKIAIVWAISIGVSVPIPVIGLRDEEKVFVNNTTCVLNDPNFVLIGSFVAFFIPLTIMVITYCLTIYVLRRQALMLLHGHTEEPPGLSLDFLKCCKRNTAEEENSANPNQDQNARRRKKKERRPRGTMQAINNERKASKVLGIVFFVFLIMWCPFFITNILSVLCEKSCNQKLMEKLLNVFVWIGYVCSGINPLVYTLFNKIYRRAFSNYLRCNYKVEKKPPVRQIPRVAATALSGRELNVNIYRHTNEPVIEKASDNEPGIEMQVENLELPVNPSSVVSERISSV", "test": "PDSP radioligand binding, 5HT2C", "conditions": "full concentration-response curves, n = 3-6 unless noted"}, "[3]": {"target": "5HT2B serotonergic receptor (Homo sapiens, UniProt P41595)", "sequence (P41595 whole entry)": "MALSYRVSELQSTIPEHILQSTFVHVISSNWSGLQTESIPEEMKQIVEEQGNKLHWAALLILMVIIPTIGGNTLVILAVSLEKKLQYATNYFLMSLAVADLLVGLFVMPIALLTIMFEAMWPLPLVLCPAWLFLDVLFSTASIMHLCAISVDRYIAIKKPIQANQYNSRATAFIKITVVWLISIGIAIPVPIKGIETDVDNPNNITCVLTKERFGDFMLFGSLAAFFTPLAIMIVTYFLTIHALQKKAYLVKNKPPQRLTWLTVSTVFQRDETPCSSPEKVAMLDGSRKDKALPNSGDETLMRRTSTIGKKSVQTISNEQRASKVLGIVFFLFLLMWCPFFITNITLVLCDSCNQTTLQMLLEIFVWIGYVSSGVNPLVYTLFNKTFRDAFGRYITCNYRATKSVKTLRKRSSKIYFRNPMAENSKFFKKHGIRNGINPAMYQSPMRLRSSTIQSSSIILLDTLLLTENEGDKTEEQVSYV", "test": "PDSP radioligand binding, 5HT2B", "conditions": "full concentration-response curves, n = 3-6 unless noted"}, "[4]": {"test_system": "41 diverse receptors, channels and a transporter", "test": "PDSP broad screen: summary of off-target interactions", "conditions": "besides 5HT2B and 5HT2C"}},
  "data": [
    {"smiles": "CNC(=O)[C@H]1O[C@@H](n2cnc3c(NCc4cccc(I)c4)ncnc32)[C@H](O)[C@@H]1O", "note": "[IB-MECA, N ^6-(3-iodobenzyl)-5′-N-methylcarboxamidoadenosine]", "values": [
      {"measurement": "binding inhibition at 10 µM", "setting": "[1]", "value": "50–70%"},
      {"measurement": "binding inhibition at 10 µM", "setting": "sigma (σ) receptors", "value": "50–70%"},
      {"measurement": "Ki", "setting": "[2]", "value": 5.42, "unit": "µM"},
      {"measurement": "Ki", "setting": "[3]", "value": 1.08, "unit": "µM"},
      {"measurement": "other off-target interactions in pharmacological screening", "setting": "[4]", "value": "no other off-target interactions"}
    ]}
  ]
}
